From patent US7968577B2 (Bristol-Myers Squibb Company, priority 2006, dated 2011)

Target: T1, human glucocorticoid receptor (Homo sapiens, UniProt P04150)
T1 construct: purified human recombinant full-length glucocorticoid receptor; purchased Invitrogen Part #2893
T1 sequence (P04150 1-777): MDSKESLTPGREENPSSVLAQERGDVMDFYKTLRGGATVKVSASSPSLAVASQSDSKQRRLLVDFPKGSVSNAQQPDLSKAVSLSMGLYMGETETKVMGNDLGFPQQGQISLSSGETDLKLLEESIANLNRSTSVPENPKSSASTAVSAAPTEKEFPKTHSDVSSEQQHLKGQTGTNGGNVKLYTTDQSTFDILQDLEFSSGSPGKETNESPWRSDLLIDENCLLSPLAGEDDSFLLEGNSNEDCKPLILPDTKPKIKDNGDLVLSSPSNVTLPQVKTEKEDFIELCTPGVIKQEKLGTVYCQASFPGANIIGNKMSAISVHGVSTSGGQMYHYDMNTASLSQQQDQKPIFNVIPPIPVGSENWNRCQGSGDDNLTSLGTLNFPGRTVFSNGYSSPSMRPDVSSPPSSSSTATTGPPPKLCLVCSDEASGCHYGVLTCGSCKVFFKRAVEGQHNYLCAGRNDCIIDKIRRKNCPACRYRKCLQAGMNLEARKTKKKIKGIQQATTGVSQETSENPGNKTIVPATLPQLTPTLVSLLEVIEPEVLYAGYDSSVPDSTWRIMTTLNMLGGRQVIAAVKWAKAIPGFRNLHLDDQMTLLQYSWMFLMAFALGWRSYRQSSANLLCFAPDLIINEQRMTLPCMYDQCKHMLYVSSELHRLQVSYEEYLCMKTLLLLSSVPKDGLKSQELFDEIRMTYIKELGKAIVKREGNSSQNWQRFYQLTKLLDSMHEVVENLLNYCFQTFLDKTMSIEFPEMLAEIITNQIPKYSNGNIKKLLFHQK
Experiment: Glucocorticoid Receptor Binding Assay (I), fluorescence polarization competitor kit (Fluormone GS Red)
Settings: GR Binding Assay (I)
Description: Glucocorticoid Receptor Binding Assay (I)^a
In order to assess the affinity of test compounds for the human glucocorticoid receptor, a commercially available kit was used (Glucocorticoid Receptor Competitor Assay Kit, Invitrogen Part #2893). Briefly, purified human recombinant full-length glucocorticoid receptor (2 nM) was mixed with fluorescently labeled glucocorticoid (1 nM Fluormone GS Red) in the presence or absence of test compound. After two hour incubation at room temperature in the dark, the fluorescence polarization (FP) of the samples was measured. […] Test compounds were analyzed in the concentration range from 8.5 E-05 μM to 5 μM.

| SMILES | Ki |
| --- | --- |
| COc1ccc(C(c2ccccc2)C(C)(C)C(=O)Nc2nncs2)cc1C (single isomer, unassigned) [Example 295, 2,2-dimethyl-3-(3-methyl-4-(methyloxy)phenyl)-3-phenyl-N-1,3,4-thiadiazol-2-ylpropanamide] | 13.9 nM |
| CC(C)(C)c1csc(NC(=O)C2(C(c3ccccc3)c3ccccc3)CCCC2)n1 [Example 151, N-(4-(1,1-dimethylethyl)-1,3-thiazol-2-yl)-1-(diphenylmethyl) cyclopentanecarboxamide] | 1150 nM |
| O=C(Nc1nccs1)C1(C(c2ccccc2)c2ccccc2)CCC1 [Example 153, 1-(diphenylmethyl)-N-1,3-thiazol-2-ylcyclobutanecarboxamide] | 23.2 nM |
| O=C(Nc1nccs1)C1(C(c2ccccc2)c2ccccc2)CCCCC1 [Example 156, 1-(diphenylmethyl)-N-1,3-thiazol-2-ylcyclohexanecarboxamide] | 36.9 nM |
| CCC(CC)(C(=O)Nc1nccs1)C(c1ccccc1)c1ccccc1 [Example 159, 2-(diphenylmethyl)-2-ethyl-N-1,3-thiaozl-2-ylbutanamide] | 101 nM |
| CCC(C)(C(=O)Nc1nccs1)C(c1ccccc1)c1ccccc1 (centres unmarked) [Example 176, 2-(diphenylmethyl)-2-methyl-N-1,3-thiazol-2-ylbutanamide] | 54 nM |
| COc1ccc([C@@H](c2ccccc2)C(C)(C)C(=O)Nc2nncs2)cc1Br [Example 292, (3R)-3-(3-bromo-4-(methyloxy)phenyl)-2,2-dimethyl-3-phenyl-N-1,3,4-thiadiazol-2-ylpropanamide] | 24.5 nM |
| COc1ccc(C(c2ccccc2)C(C)(C)C(=O)Nc2nncs2)cc1C (centres unmarked) [Example 293, 2,2-dimethyl-3-(3-methyl-4-(methyloxy)phenyl)-3-phenyl-N-1,3,4-thiadiazol-2-ylpropanamide] | 9.85 nM |
| CC(C)(C(=O)Nc1nccs1)C(c1ccccc1)c1ccc(Cc2ccccc2)cc1 (centres unmarked) [Example 319, 2,2-dimethyl-3-phenyl-3-(4-(phenylmethyl)phenyl)-N-1,3-thiazol-2-ylpropanamide] | 386 nM |
| CC(C)(C(=O)Nc1nncs1)C(c1ccccc1)c1ccc(Cc2ccccc2)cc1 (centres unmarked) [Example 320, 2,2-dimethyl-3-phenyl-3-(4-(phenylmethyl)phenyl)-N-1,3,4-thiadiazol-2-ylpropanamide] | 187 nM |
| CC(C)(C(=O)Nc1nccs1)C(c1ccccc1)c1ccc(Oc2ccccc2)cc1 (centres unmarked) [Example 321, 2,2-dimethyl-3-phenyl-3-(4-(phenyloxy)phenyl)-N-1,3-thiazol-2-ylpropanamide] | 5.68 nM |
| CC(C)(C(=O)Nc1nncs1)C(c1ccccc1)c1ccc(Oc2ccccc2)cc1 (centres unmarked) [Example 322, 2,2-dimethyl-3-phenyl-3-(4-(phenyloxy)phenyl)-N-1,3,4-thiadiazol-2-ylpropanamide] | 5.17 nM |
| CC(C)(C(=O)Nc1nncs1)C(c1ccccc1)c1ccc(Br)cc1 (centres unmarked) [Example 323, 3-(4-bromophenyl)-2,2-dimethyl-3-phenyl-N-1,3,4-thiadiazol-2-ylpropanamide] | 5.07 nM |
| CC(C)(C(=O)Nc1nncs1)C(c1ccccc1)c1ccc(Br)cc1 (centres unmarked) [Example 324, 3-(4-bromophenyl)-2,2-dimethyl-3-phenyl-N-1,3,4-thiadiazol-2-ylpropanamide] | 9.36 nM |
| COc1ccc(-c2ccc(C(c3ccccc3)C(C)(C)C(=O)Nc3nncs3)cc2)cc1 (centres unmarked) [Example 377, 2,2-dimethyl-3-(4′-(methyloxy)-4-biphenylyl)-3-phenyl-N-1,3,4-thiadiazol-2-ylpropanamide] | 1.81 nM |
| CN(C)C(=O)c1ccc(-c2ccc(C(c3ccccc3)C(C)(C)C(=O)Nc3nncs3)cc2)cc1 (centres unmarked) [Example 379, 4′-(2,2-dimethyl-3-oxo-1-phenyl-3-(1,3,4-thiadiazol-2-ylamino)propyl)-N,N-dimethyl-4-biphenylcarboxamide] | 1.24 nM |
| CN(C)C(=O)c1ccc(-c2ccc(C(c3ccccc3)C(C)(C)C(=O)Nc3nncs3)cc2)cc1 (centres unmarked) [Example 380, 4′-(2,2-dimethyl-3-oxo-1-phenyl-3-(1,3,4-thiadiazol-2-ylamino)propyl)-N,N-dimethyl-4-biphenylcarboxamide] | 24.2 nM |
| CN(C)C(=O)c1ccc(-c2ccc(C(c3ccccc3)C(C)(C)C(=O)Nc3nccs3)cc2)cc1 (centres unmarked) [Example 381, 4′-(2,2-dimethyl-3-oxo-1-phenyl-3-(1,3-thiazol-2-ylamino)propyl)-N,N-dimethyl-4-biphenylcarboxamide] | 3.53 nM |

| SMILES | Ki |
| --- | --- |
| CC(C)Cc1ccc(-c2ccc(C(c3ccccc3)C(C)(C)C(=O)Nc3nncs3)cc2)cc1 (centres unmarked) [Example 383, 2,2-dimethyl-3-(4′-(2-methylpropyl)-4-biphenylyl)-3-phenyl-N-1,3,4-thiadiazol-2-ylpropanamide] | 9.18 nM |
| CCCc1ccc(-c2ccc(C(c3ccccc3)C(C)(C)C(=O)Nc3nncs3)cc2)cc1 (centres unmarked) [Example 384, 2,2-dimethyl-3-phenyl-3-(4′-propyl-4-biphenylyl)-N-1,3,4-thiadiazol-2-ylpropanamide] | 6.43 nM |
| CC(C)Oc1ccc(-c2ccc(C(c3ccccc3)C(C)(C)C(=O)Nc3nncs3)cc2)cc1F (centres unmarked) [Example 385, 3-(3′-fluoro-4′-((1-methylethyl)oxy)-4-biphenylyl)-2,2-dimethyl-3-phenyl-N-1,3,4-thiadiazol-2-ylpropanamide] | 13.8 nM |
| CC(C)CC(c1ccc(Br)cc1)C(C)(C)C(=O)Nc1nccs1 (centres unmarked) [Example 386, 3-(4-bromophenyl)-2,2,5-trimethyl-N-1,3-thiazol-2-ylhexanamide] | 20.6 nM |
| CC(C)CC(c1ccc(Br)cc1)C(C)(C)C(=O)Nc1nncs1 (centres unmarked) [Example 387, 3-(4-bromophenyl)-2,2,5-trimethyl-N-1,3,4-thiadiazol-2-ylhexanamide] | 17.1 nM |
| Cc1nnc(NC(=O)C(C)(C)C(CC(C)C)c2ccc(N3CCOCC3)cc2)s1 (centres unmarked) [Example 388, 2,2,5-trimethyl-N-(5-methyl-1,3,4-thiadiazol-2-yl)-3-(4-(4-morpholinyl)phenyl)hexanamide] | 14 nM |
| CC(C)CC(c1ccc(N2CCOCC2)cc1)C(C)(C)C(=O)Nc1nccs1 (centres unmarked) [Example 389, 2,2,5-trimethyl-3-(4-(4-morpholinyl)phenyl)-N-1,3-thiazol-2-ylhexanamide] | 4.65 nM |
| CC(C)CC(c1ccc(N2CCOCC2)cc1)C(C)(C)C(=O)Nc1nncs1 (centres unmarked) [Example 390, 2,2,5-trimethyl-3-(4-(4-morpholinyl)phenyl)-N-1,3,4-thiadiazol-2-ylhexanamide] | 5.41 nM |
| COc1ccc(-c2ccc(C(CC(C)C)C(C)(C)C(=O)Nc3nccs3)cc2)cc1 (centres unmarked) [Example 391, 2,2,5-trimethyl-3-(4′-(methyloxy)-4-biphenylyl)-N-1,3-thiazol-2-ylhexanamide] | 11.1 nM |
| CC(C)CC(c1ccc(-c2ccc(C(=O)N(C)C)cc2)cc1)C(C)(C)C(=O)Nc1nccs1 (centres unmarked) [Example 392, 4′-(1-(1,1-dimethyl-2-oxo-2-(1,3-thiazol-2-ylamino)ethyl)-3-methylbutyl)-N,N-dimethyl-4-biphenylcarboxamide] | 6.83 nM |
| CC(C)CC(c1ccc(-c2ccc(C(=O)N(C)C)cc2)cc1)C(C)(C)C(=O)Nc1nncs1 (centres unmarked) [Example 393, 4′-(1-(1,1-dimethyl-2-oxo-2-(1,3,4-thiadiazol-2-ylamino)ethyl)-3-methylbutyl)-N,N-dimethyl-4-biphenylcarboxamide] | 3.68 nM |
| COc1ccc(-c2ccc(C(CC(C)C)C(C)(C)C(=O)Nc3nncs3)cc2)cc1 (centres unmarked) [Example 394, 2,2,5-trimethyl-3-(4′-(methyloxy)-4-biphenylyl)-N-1,3,4-thiadiazol-2-ylhexanamide] | 9.28 nM |
| CC(C)Cc1ccc(-c2ccc(C(CC(C)C)C(C)(C)C(=O)Nc3nncs3)cc2)cc1 (centres unmarked) [Example 397, 2,2,5-trimethyl-3-(4′-(2-methylpropyl)-4-biphenylyl)-N-1,3,4-thiadiazol-2-ylhexanamide] | 12.1 nM |
| CCCc1ccc(-c2ccc(C(CC(C)C)C(C)(C)C(=O)Nc3nncs3)cc2)cc1 (centres unmarked) [Example 399, 2,2,5-trimethyl-3-(4′-propyl-4-biphenylyl)-N-1,3,4-thiadiazol-2-ylhexanamide] | 7.1 nM |
| CC(C)(C(=O)Nc1nncs1)C(c1ccccc1)c1ccc(-c2cccc(Cl)c2)cc1 (centres unmarked) [Example 409, 3-(3′-chloro-4-biphenylyl)-2,2-dimethyl-3-phenyl-N-1,3,4-thiadiazol-2-ylpropanamide] | 25.4 nM |
| COc1cccc(-c2ccc(C(c3ccccc3)C(C)(C)C(=O)Nc3nncs3)cc2)c1 (centres unmarked) [Example 410, 3-(3′-methoxy-4-biphenylyl)-2,2-dimethyl-3-phenyl-N-1,3,4-thiadiazol-2-ylpropanamide] | 4.45 nM |
| COc1ccccc1-c1ccc(C(c2ccccc2)C(C)(C)C(=O)Nc2nncs2)cc1 (centres unmarked) [Example 411, 3-(2′-methoxy-4-biphenylyl)-2,2-dimethyl-3-phenyl-N-1,3,4-thiadiazol-2-ylpropanamide] | 154 nM |
